Experimental findings from patent US20260070945A1, “MACROCYCLIC IMMUNOMODULATORS” (Bristol-Myers Squibb Company, priority 2022, published 2026) are described below.

SMILES strings stand for the structures. Like-named read-outs stand apart in the source and are kept apart here. *1 amine or outer side, *2 acyl side, *3 side chain or, on linkers, in order; H or OH if unused. Where a SMILES comes first, the peptide text is derived from it. Bridges are numbered along the chain shown (N, C = ends). [ ]: non-standard residue; d: D form. The star is where a group is joined. ξ: configuration not given here. Phe(3-CF3) = N[C@@H](Cc1cccc(C(F)(F)F)c1)C(=O)O; Phe(4-CONH2) = NC(=O)c1ccc(C[C@H](N)C(=O)O)cc1; Phe(4-COOH) = N[C@@H](Cc1ccc(C(=O)O)cc1)C(=O)O; Bip = N[C@@H](Cc1ccc(-c2ccccc2)cc1)C(=O)O; Phe(3-Me) = Cc1cccc(C[C@H](N)C(=O)O)c1; γGlu = O=C(O)[C@H](CCC(=O)[*:2])N[*:1]; NH(CH2)12COOH = O=C(O)CCCCCCCCCCCCN*; Val(3-OH) = CC(C)(O)[C@H](N)C(=O)O; aIle = CC[C@@H](C)[C@H](N)C(=O)O; 4Pal = N[C@@H](Cc1ccncc1)C(=O)O; Cha = N[C@@H](CC1CCCCC1)C(=O)O; Cit = NC(=O)NCCC[C@H](N)C(=O)O; Ile(3ξ) = CCC(C)[C@H](N)C(=O)O; Thr(3ξ) = CC(O)[C@H](N)C(=O)O; 12Ado = NCCCCCCCCCCCC(=O)O; Carboxymethyl = O=C(O)C*; NMeA = CN[C@@H](C)C(=O)O; Orn = NCCC[C@H](N)C(=O)O; Aun = NCCCCCCCCCCC(=O)O; Dab = NCC[C@H](N)C(=O)O; AEEA = NCCOCCOCC(=O)O

For this assay, the target named is T1, PD-1/PD-L1 interaction (PE-labeled human PD-L1-Ig binding to Jurkat cell line over-expressing human PD-1) (Homo sapiens, UniProt Q15116).
T1 construct: expressed in transfected cells; host or cells: Jurkat
T1 sequence (Q15116 25-288): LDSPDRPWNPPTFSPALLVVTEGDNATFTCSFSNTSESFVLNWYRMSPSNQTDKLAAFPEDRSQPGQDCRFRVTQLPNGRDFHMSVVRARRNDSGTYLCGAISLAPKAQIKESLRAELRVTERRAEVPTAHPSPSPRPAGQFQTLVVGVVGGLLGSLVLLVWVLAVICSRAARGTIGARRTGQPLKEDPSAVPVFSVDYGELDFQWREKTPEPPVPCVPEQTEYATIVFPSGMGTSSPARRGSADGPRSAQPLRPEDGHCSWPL
Put plainly: Jurkat-PD-1 Cell Binding High-Content Screening Assay (CBA). In outline: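 Binding of 20 nM (final) PE-tagged PD-L1-Ig to compound-pretreated Jurkat-hPD-1 cells was measured by high-content imaging after 1 h. Pretreatment ran 2 h at 37 °C in DMEM with 10% fetal calf serum.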

Setting [1] is: Jurkat-hPD-1 cells, PE-labeled PD-L1-Ig 20 nM final; read-out: Jurkat HPD1 PDL1 IC50.

As for `CC(=O)NCCCC[C@@H]1NC(=O)[C@H](Cc2ccc(-c3ccccc3)cc2)NC(=O)[C@H](C(C)C)NC(=O)[C@H](Cc2cccc(C)c2)NC(=O)[C@H](CC(=O)O)NC(=O)[C@H](Cc2ccc(OCC(=O)O)cc2)NC(=O)[C@H](CCCNC(=N)N)NC(=O)CSC[C@@H](C(=O)N[C@H](CCC(=O)O)C(=O)NCCCCCCCCCCCC(=O)O)NC(=O)[C@H](C(C)O)NC(=O)[C@H](C(C)C)NC(=O)[C@H](CC2CCCCC2)NC(=O)[C@H](CCN)NC(=O)[C@@H](CC(C)C)NC(=O)[C@H](C)N(C)C1=O` (stereo partly drawn) [Example 2388] ({CH2CO}-RY(Carboxymethyl)D[Phe(3-Me)]V[Bip]K(Ac)[NMeA][dL][Dab][Cha]V[Thr(3ξ)]C[dE][12Ado]-OH; thioether N-14), the IC50 under setting [1] stood at 8.3 nM.

On to `CC(C)C[C@H]1NC(=O)[C@H](C)N(C)C(=O)[C@H](CCCNC(N)=O)NC(=O)[C@H](Cc2ccc(-c3ccccc3)cc2)NC(=O)[C@H](Cc2ccc(C(=O)O)cc2)NC(=O)[C@H](Cc2cccc(C(F)(F)F)c2)NC(=O)[C@H](CC(=O)O)NC(=O)[C@H](Cc2ccc(OCC(=O)O)cc2)NC(=O)[C@H](Cc2ccc(C(=O)O)cc2)NC(=O)CSC[C@@H](C(=O)N[C@@H](CCN)C(=O)NCCCCCCCCCCCCC(=O)O)NC(=O)[C@H](CC(=O)O)NC(=O)[C@H](C(C)(C)O)NC(=O)[C@H](CC2CCCCC2)NC(=O)[C@H](CCN)NC1=O` [Example 1146] ({CH2CO}-[Phe(4-COOH)]Y(Carboxymethyl)D[Phe(3-CF3)][Phe(4-COOH)][Bip][Cit][NMeA][dL][Dab][Cha][Val(3-OH)]DC[Dab]-{NH(CH2)12COOH}; thioether N-14), for which the IC50 under setting [1] stood at 13.7 nM. Consider `Cc1cccc(C[C@@H]2NC(=O)[C@H](CC(=O)O)NC(=O)[C@H](Cc3ccc(C(=O)O)cc3)NC(=O)[C@H](Cc3ccncc3)NC(=O)CSC[C@@H](C(=O)N[C@@H](CCN)C(=O)NCCOCCOCC(=O)NCCCCCCCCCCC(=O)O)NC(=O)[C@H](C(C)O)NC(=O)[C@H](C(C)(C)O)NC(=O)[C@H](CC3CCCCC3)NC(=O)[C@H](CCN)NC(=O)[C@@H](CC(C)C)NC(=O)[C@H](C)N(C)C(=O)[C@H](CCC(=O)O)NC(=O)[C@H](Cc3ccc(-c4ccccc4)cc3)NC(=O)[C@H](Cc3ccc(C(N)=O)cc3)NC2=O)c1` (stereo partly drawn) [Example 2540] ({CH2CO}-[4Pal][Phe(4-COOH)]D[Phe(3-Me)][Phe(4-CONH2)][Bip]E[NMeA][dL][Dab][Cha][Val(3-OH)][Thr(3ξ)]C[Dab][AEEA][Aun]-OH; thioether N-14), for which the IC50 (PE-labeled PD-L1-Ig 20 nM final, Jurkat-hPD-1 cells; read-out: Jurkat HPD1 PDL1 IC50) worked out at 9 nM.

In the case of `CCC(C)[C@@H]1NC(=O)[C@H](Cc2ccc(-c3ccccc3)cc2)NC(=O)[C@H](CC(C)C)NC(=O)[C@H](Cc2c[nH]c3ccccc23)NC(=O)[C@H](CC(=O)O)NC(=O)[C@H](Cc2ccc(C(=O)O)cc2)NC(=O)[C@H](Cc2ccc(OCC(=O)O)cc2)NC(=O)CSC[C@@H](C(=O)N[C@@H](CC(N)=O)C(=O)NCCOCCOCC(=O)NCCCCCCCCCCC(=O)O)NC(=O)[C@H](CO)NC(=O)[C@H](C(C)(C)O)NC(=O)[C@H](CC2CCCCC2)NC(=O)[C@H](CCN)NC(=O)[C@@H](CC(C)C)NC(=O)[C@H](C)N(C)C1=O` (stereo partly drawn) [Example 1409] ({CH2CO}-Y(Carboxymethyl)[Phe(4-COOH)]DWL[Bip][Ile(3ξ)][NMeA][dL][Dab][Cha][Val(3-OH)]SCN[AEEA][Aun]-OH; thioether N-14), the IC50 under setting [1] amounted to 23.7 nM. `CC[C@@H](C)[C@@H]1NC(=O)[C@H](Cc2ccc(-c3ccccc3)cc2)NC(=O)[C@H](C(C)C)NC(=O)[C@H](Cc2c[nH]c3ccccc23)NC(=O)[C@H](CC(=O)O)NC(=O)[C@H](Cc2ccc(OCC(=O)O)cc2)NC(=O)[C@H](Cc2ccncc2)NC(=O)CSC[C@@H](C(=O)N[C@H](CC(N)=O)C(=O)NCCOCCOCC(=O)N[C@@H](CCC(=O)NCCOCCOCC(=O)N[C@@H](CCC(=O)NCCOCCOCC(=O)N[C@@H](CCCN)C(=O)NCCCCCCCCCCC(=O)O)C(=O)O)C(=O)O)NC(=O)[C@H](CO)NC(=O)[C@H](C(C)C)NC(=O)[C@H](CC2CCCCC2)NC(=O)[C@H](CC(N)=O)NC(=O)[C@@H](CC(C)C)NC(=O)[C@H](C)N(C)C1=O` [Example 2017] ({CH2CO}-[4Pal]Y(Carboxymethyl)DWV[Bip][aIle][NMeA][dL]N[Cha]VSC[dN][AEEA][γGlu][AEEA][γGlu][AEEA][Orn][Aun]-OH; thioether N-14): the IC50 under setting [1] stood at 24.3 nM.

The term IC50 denotes the midpoint of a concentration-inhibition curve.
